Assay results: patent EP0852142A1, “Diamines in the treatment of arrhythmia” (SMITHKLINE BEECHAM LABORATOIRES PHARMACEUTIQUES, priority 1992, dated 1993)
Where “and” joins values, the source holds several entries; their conditions need not be identical. Equal entries are not always repeated.

What was measured:
[1] = test system: Ischemia and reperfusion-induced arrhythmias; assay: Ischemia and reperfusion-induced arrhythmias (ventricular fibrillation) in anesthetized dogs; assay type: in vivo, dog
Description: Surgical preparation. Dogs were anesthetized using 30 mg/kg i.v. sodium pentobarbital. […] A catheter was inserted into the right femoral artery to measure the systemic arterial pressure (Statham P23 ID, GOULD). A 5F Millar microtip catheter pressure transducer was inserted into the left carotid artery and advanced into the left ventricular lumen to measure the left ventricular pressure (LVP) and its first positive derivative dP/dt. Peripheral venous and arterial catheters were placed for drug administration and blood samples collection, respectively. Electrocardiographic variables were measured via a standard lead II ECG. […] After a left thoracotomy through the fifth intercostal space, the heart was suspended in a pericardial cradle. The left circumflex coronary artery (LCX) was isolated close to its origin and a silk suture was placed around it for later occlusion.
Experimental time course. After placement of the silk strand the animal was allowed to stabilize for at least 10 minutes. Arterial blood gases were determined (ABL500, Radiometer), and ventilation was adjusted to maintain these parameters within the normal range. Then, intravenous administration of the drug was performed in 10 minutes. After the drug administration, hemodynamic and ECG variables were again measured and the LCX was occluded for 45 minutes by placing a microclamp. Reperfusion performed by removing the clamp was continued for 5 hours.
Measurements. Ventricular arrhythmias were analyzed during the preischemic period, during ischemia and during the first hour of reperfusion. Ventricular premature beats (VPBs) were defined as identifiable premature QRS complexes and salvos as more than 2 consecutive VPBs. Ventricular tachycardia was defined as 4 or more consecutive VPBs. Ventricular fibrillation (VF) was diagnosed when total irregularity of rhythm occurred and when a rate could no longer be measured. If defibrillation was required a DC shock was given.

anesthetized dog = assay: Hemodynamic and electrocardiographic parameters in anesthetized dogs (before and during LCX occlusion/reperfusion); assay type: in vivo; details: for QTc: Bazett
Description: Surgical preparation. Dogs were anesthetized using 30 mg/kg i.v. sodium pentobarbital. […] A catheter was inserted into the right femoral artery to measure the systemic arterial pressure (Statham P23 ID, GOULD). A 5F Millar microtip catheter pressure transducer was inserted into the left carotid artery and advanced into the left ventricular lumen to measure the left ventricular pressure (LVP) and its first positive derivative dP/dt. Peripheral venous and arterial catheters were placed for drug administration and blood samples collection, respectively. Electrocardiographic variables were measured via a standard lead II ECG. For determination of the Q-T interval of ECG a CV5RL precordial lead of ECG was measured as previously described (Koerner et al.,J.,Cardiovascular Pharmacol. […] After a left thoracotomy through the fifth intercostal space, the heart was suspended in a pericardial cradle. The left circumflex coronary artery (LCX) was isolated close to its origin and a silk suture was placed around it for later occlusion. Experimental time course. After placement of the silk strand the animal was allowed to stabilize for at least 10 minutes. Arterial blood gases were determined (ABL500, Radiometer), and ventilation was adjusted to maintain these parameters within the normal range. Then, intravenous administration of the drug was performed in 10 minutes. After the drug administration, hemodynamic and ECG variables were again measured and the LCX was occluded for 45 minutes by placing a microclamp. Reperfusion performed by removing the clamp was continued for 5 hours. Arterial blood pressure and ECG were recorded continuously on a Gould polyrecorder. Signals were digitised by an A/D convertor and analysed on an IBM computer using an interactive software (Clodia, Clod sarl) and then transfered to a VAX 4000-200 computer (Digital Equipment Corporation, Maynard, MA) for further analysis. Heart rate was calculated from the ECG. […] QTc = (QT interval in msec) / (R-R interval in sec)^½.

[2] = test system: guinea pig papillary muscles; assay: Electrophysiological studies: transmembrane action potentials of isolated papillary muscle; assay type: cell-based, Guinea pigs; details: for resting membrane potential, action potential amplitude, Vmax: even at the highest concentrations
Description: Guinea pigs (300-350 g) were anesthetized by intravenous injection of sodium pentobarbital (60 mg/kg). After thoracotomy the heart was rapidly excised and placed in oxygenated Tyrode solution. Papillary muscles were removed from the right ventricle. Preparations were then fixed to the silastic base of a 5 ml organ bath and superfused with oxygenated Tyrode solution maintained at 37 ± 1 °C.
The solution was equilibrated with a gas mixture of 95% O2 - 5% CO2.
After a stabilisation period (at least 1 h), transmembrane action potentials were recorded with conventional microelectrodes (10 MOhm) connected to a high input impedance amplifier (BIOLOGIC VF 180). External stimuli were delivered to the preparation with bipolar platinum electrodes placed at one end of the muscle. The pulse duration was 1 ms and the amplitude was twice threshold. The basic cycle length was 1000 ms (PULSAR 6i stimulator). The signals were monitored on a storage oscilloscope (GOULD 1602) and simultaneously recorded on a digital tape recorder (BIOLOGIC DTR 1200) for further analysis.
Measurements were made of resting membrane potential (RMP), action potential amplitude (APA) and action potential durations at 30, 50 and 90% repolarization (APD30, APD50 and APD90 respectively). Recordings were made after 30 min of equilibration for each concentration. Only recordings in which the same impalement was maintained throughout the entire experiment were used for analysis.

[3] = preischemic period, Compound I 0.3 and 1.0 mg/kg, d-sotalol 3.0 and 10.0 mg/kg

With `COc1ccc(CCN(C)CCCN(C(=O)c2ccc([N+](=O)[O-])cc2)c2ccc(OC)c(OC)c2)cc1OC` [Compound I, (N-[3,4-dimethoxy-phenyl]-N-3-[N'-2-(3,4-dimethoxyphenyl)-ethyl-N'-methylamino]propyl)-N'-4-nitrobenzamide] the “incidence of ventricular fibrillation” value ([1]; 0.3 mg/kg, 45 min ischemia and first 60 min of reperfusion, control dogs 66.7 %) was 33.3%, the “incidence of ventricular fibrillation” value ([1]; 1.0 mg/kg, 45 min ischemia and first 60 min of reperfusion, control dogs 66.7 %, p <0.05) was 14.3% and the “ventricular fibrillation during ischemia” value ([1]; 0.3 or 1.0 mg/kg, ischemic period) was “none of the dogs treated with Compound I experienced ventricular fibrillation during ischemia”. The PR (anesthetized dog; dog, in vivo) was 112 ± 4 ms and 120 ± 6 ms and 115 ± 7 ms and 116 ± 3 ms and 113 ± 3 ms, the heart rate (anesthetized dog; dog, in vivo) was “reduced heart rate in a dose-dependent manner” and the “mean arterial and left ventricular pressure” value (anesthetized dog; dog, in vivo) was “only minimal changes”. The pressure rate product (anesthetized dog; dog, in vivo) was “reduced the pressure rate product”, the Overshoot ([2]; 0.3 µM) was 36 ± 1 mV and the Vmax ([2]; 0.3 µM) was 168 ± 14 V/sec. The APD50 ([2]; 0.3 µM, action potential duration at 50 % of the repolarization) was 162 ± 6 ms, the RMP ([2]; 0.3 µM, resting membrane potential) was -92 ± 1 mV and the APD50 ([2]; 1 µM) was 170 ± 5 ms. The Overshoot ([2]; 1 µM) was 35 ± 1 mV, the RMP ([2]; 1 µM) was -92 ± 1 mV and the Vmax ([2]; 1 µM) was 168 ± 14 V/sec. It also gave an APD50 ([2]; 3 µM) of 163 ± 5 ms, an Overshoot ([2]; 3 µM) of 34 ± 1 mV and an RMP ([2]; 3 µM) of -92 ± 1 mV. For the same compound, the Vmax ([2]; 3 µM) was 169 ± 14 V/sec, the APD50 ([2]; 10 µM) was 139 ± 6 ms and the Overshoot ([2]; 10 µM) was 33 ± 2 mV. For the same compound, the RMP ([2]; 10 µM) was -91 ± 1 mV, the Vmax ([2]; 10 µM) was 167 ± 15 V/sec and the “resting membrane potential, action potential amplitude, Vmax” value [2] was “did not change”. The action potential duration ([2]; prolongation at 0.3 and 1 µM, no further increase at 3 µM, reduced at 10 µM) was “biphasic effect”.
With `CC(C)NCC(O)c1ccc(NS(C)(=O)=O)cc1` (stereo not drawn) [d-Sotalol] the “ventricular fibrillation during the ischemic period” value ([1]; 3.0 mg/kg) was “one dog”, the “incidence of ventricular fibrillation” value ([1]; 10.0 mg/kg (only the high dose), ischemia and reperfusion) was “reduced the incidence of ventricular fibrillation” and the PR (anesthetized dog; 3.0 mg/kg i.v., After drug, before drug 105 ± 5) was 118 ± 7 ms. It also gave a QT (anesthetized dog; 3.0 mg/kg i.v., After drug, before drug 238 ± 11) of 269 ± 12 ms, a QTc (anesthetized dog; 3.0 mg/kg i.v., After drug, before drug 384 ± 8) of 397 ± 11 msec/sec^½ and a PR (anesthetized dog; 3.0 mg/kg i.v., Ischemia (45 min), before drug 105 ± 5) of 111 ± 7 ms. The QT (anesthetized dog; 3.0 mg/kg i.v., Ischemia (45 min), before drug 238 ± 11) was 264 ± 7 ms, the QTc (anesthetized dog; 3.0 mg/kg i.v., Ischemia (45 min), before drug 384 ± 8) was 400 ± 8 msec/sec^½ and the PR (anesthetized dog; 3.0 mg/kg i.v., reperfusion (60 min), before drug 105 ± 5) was 112 ± 5 ms. For the same compound, the QT (anesthetized dog; 3.0 mg/kg i.v., reperfusion (60 min), before drug 238 ± 11) was 251 ± 11 ms, the QTc (anesthetized dog; 3.0 mg/kg i.v., reperfusion (60 min), before drug 384 ± 8) was 392 ± 16 msec/sec^½ and the PR (anesthetized dog; 10.0 mg/kg i.v., After drug, before drug 109 ± 5) was 115 ± 5 ms. It also gave a QT (anesthetized dog; 10.0 mg/kg i.v., After drug, before drug 251 ± 11) of 337 ± 19 ms, a QTc (anesthetized dog; 10.0 mg/kg i.v., After drug, before drug 386 ± 3) of 440 ± 14 msec/sec^½ and a PR (anesthetized dog; 10.0 mg/kg i.v., Ischemia (45 min), before drug 109 ± 5) of 113 ± 5 ms. For the same compound, the QT (anesthetized dog; 10.0 mg/kg i.v., Ischemia (45 min), before drug 251 ± 11) was 312 ± 14 ms, the QTc (anesthetized dog; 10.0 mg/kg i.v., Ischemia (45 min), before drug 386 ± 3) was 423 ± 10 msec/sec^½ and the PR (anesthetized dog; 10.0 mg/kg i.v., reperfusion (60 min), before drug 109 ± 5) was 113 ± 6 ms. For the same compound, the QT (anesthetized dog; 10.0 mg/kg i.v., reperfusion (60 min), before drug 251 ± 11) was 285 ± 11 ms, the QTc (anesthetized dog; 10.0 mg/kg i.v., reperfusion (60 min), before drug 386 ± 3) was 400 ± 8 msec/sec^½ and the heart rate (anesthetized dog; [3]) was “reduced heart rate in a dose-dependent manner”. The “left ventricular dP/dtmax” value (anesthetized dog; [3]) was “reduction in the left ventricular dP/dtmax”, the “mean arterial and left ventricular pressure” value (anesthetized dog; [3]) was “only minimal changes” and the pressure rate product (anesthetized dog; [3]) was “reduced the pressure rate product”. It also gave an APA ([2]; 3 µM) of 127 ± 1 mV, an APD30 ([2]; 3 µM) of 93 ± 5 ms and an APD50 ([2]; 3 µM) of 136 ± 5 ms. The APD90 ([2]; 3 µM) was 171 ± 5 ms, the Overshoot ([2]; 3 µM) was 33 ± 1 mV and the RMP ([2]; 3 µM) was -95 ± 1 mV. For the same compound, the Vmax ([2]; 3 µM) was 199 ± 30 V/sec, the APA ([2]; 10 µM) was 128 ± 1 mV and the APD30 ([2]; 10 µM) was 101 ± 8 ms. The APD50 ([2]; 10 µM) was 151 ± 7 ms, the APD90 ([2]; 10 µM) was 190 ± 7 ms and the Overshoot ([2]; 10 µM) was 34 ± 1 mV. The RMP ([2]; 10 µM) was -94 ± 1 mV, the Vmax ([2]; 10 µM) was 209 ± 32 V/sec and the APA ([2]; 30 µM) was 127 ± 1 mV. It also gave an APD30 ([2]; 30 µM) of 104 ± 7 ms, an APD50 ([2]; 30 µM) of 160 ± 6 ms and an APD90 ([2]; 30 µM) of 204 ± 6 ms. It also gave an Overshoot ([2]; 30 µM) of 33 ± 1 mV, an RMP ([2]; 30 µM) of -94 ± 1 mV and a Vmax ([2]; 30 µM) of 209 ± 32 V/sec. For the same compound, the APA ([2]; 100 µM) was 127 ± 1 mV, the APD30 ([2]; 100 µM) was 102 ± 7 ms and the APD50 ([2]; 100 µM) was 165 ± 6 ms. For the same compound, the APD90 ([2]; 100 µM) was 214 ± 7 ms, the Overshoot ([2]; 100 µM) was 32 ± 1 mV and the RMP ([2]; 100 µM) was -94 ± 1 mV. The Vmax ([2]; 100 µM) was 207 ± 34 V/sec, the action potential duration ([2]; 3 to 100 µM) was “dose-dependent increase in action potential duration” and the “resting membrane potential, action potential amplitude, Vmax” value [2] was “did not change”.
